“And” between values parts separate entries of the source, which are not always exact repeats. Identical values can stand only once. Results filed as inconclusive are left out.
Test system: BDF1 mice, s.c. Lewis lung carcinoma, T/C %
Experiment: NCI In Vivo Anticancer Drug Screen. Data for tumor model Lewis Lung Carcinoma (subcutaneous) in B6D2F1 (BDF1) mice
Outline: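 Transplanted tumors grown in mice; compound vs vehicle dosing; endpoint survival or tumor size; ratio T/C.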

Q: What does the source list for `CN(C)/N=N/c1nc[nH]c1C(N)=O`?
A: T/C (endpoint: mean tumor weight, dose: 12.5 mg/kg/injection, schedule: Q01DX011 (ip), vehicle: saline, higher = larger tumour): 76 % of control; T/C (endpoint: mean tumor weight, dose: 25.0 mg/kg/injection, schedule: Q01DX011 (ip), vehicle: saline, higher = larger tumour): 108 % of control; T/C (endpoint: mean tumor weight, dose: 48.0 mg/kg/injection, schedule: Q01DX011 (ip), vehicle: carboxymethylcellulose (CMC), higher = larger tumour): 111 % of control; T/C (endpoint: mean tumor weight, dose: 50.0 mg/kg/injection, schedule: Q01DX011 (ip), vehicle: saline, higher = larger tumour): 80 % of control; T/C (endpoint: mean tumor weight, dose: 95.0 mg/kg/injection, schedule: Q01DX011 (ip), vehicle: carboxymethylcellulose (CMC), higher = larger tumour): 117 % of control; T/C (endpoint: mean tumor weight, dose: 100.0 mg/kg/injection, schedule: Q01DX010 (ip), vehicle: saline, higher = larger tumour): 44 % of control; T/C (endpoint: mean tumor weight, dose: 100.0 mg/kg/injection, schedule: Q01DX011 (ip), vehicle: saline, higher = larger tumour): 42 % of control; T/C (endpoint: mean tumor weight, dose: 143.0 mg/kg/injection, schedule: Q01DX011 (ip), vehicle: carboxymethylcellulose (CMC), higher = larger tumour): 78 % of control; T/C (endpoint: mean tumor weight, dose: 200.0 mg/kg/injection, schedule: Q01DX010 (ip), vehicle: saline, higher = larger tumour): 51 % of control; T/C (endpoint: median survival time, dose: 27.0 mg/kg/injection, schedule: Q01DX015 (ip), vehicle: carboxymethylcellulose (CMC), higher = longer survival): 94 % of control and 122 % of control; T/C (endpoint: median survival time, dose: 37.5 mg/kg/injection, schedule: Q01DX009 (ip), vehicle: Klucel (hydroxypropylcellulose) (HPC), higher = longer survival): 97 % of control and 116 % of control; T/C (endpoint: median survival time, dose: 37.5 mg/kg/injection, schedule: Q01DX009 (ip), vehicle: saline with Tween-80, higher = longer survival): 106 % of control and 118 % of control; T/C (endpoint: median survival time, dose: 40.0 mg/kg/injection, schedule: Q01DX015 (ip), vehicle: carboxymethylcellulose (CMC), higher = longer survival): 92 % of control; T/C (endpoint: median survival time, dose: 60.0 mg/kg/injection, schedule: Q01DX015 (ip), vehicle: carboxymethylcellulose (CMC), higher = longer survival): 102 % of control; T/C (endpoint: median survival time, dose: 75.0 mg/kg/injection, schedule: Q01DX009 (ip), vehicle: Klucel (hydroxypropylcellulose) (HPC), higher = longer survival): 110 % of control; T/C (endpoint: median survival time, dose: 75.0 mg/kg/injection, schedule: Q01DX009 (ip), vehicle: saline with Tween-80, higher = longer survival): 118 % of control; T/C (endpoint: median survival time, dose: 100.0 mg/kg/injection, schedule: Q01DX009 (ip), vehicle: saline with Tween-80, higher = longer survival): 118 % of control; T/C (endpoint: median survival time, dose: 150.0 mg/kg/injection, schedule: Q01DX009 (ip), vehicle: Klucel (hydroxypropylcellulose) (HPC), higher = longer survival): 122 % of control; T/C (endpoint: median survival time, dose: 150.0 mg/kg/injection, schedule: Q01DX009 (ip), vehicle: saline with Tween-80, higher = longer survival): 92 % of control; T/C (endpoint: median survival time, dose: 200.0 mg/kg/injection, schedule: Q01DX009 (ip), vehicle: saline with Tween-80, higher = longer survival): 113 % of control; T/C (endpoint: median survival time, dose: 300.0 mg/kg/injection, schedule: Q01DX009 (ip), vehicle: Klucel (hydroxypropylcellulose) (HPC), higher = longer survival): 95 % of control; T/C (endpoint: median survival time, dose: 450.0 mg/kg/injection, schedule: Q01DX001 (ip), vehicle: carboxymethylcellulose (CMC), higher = longer survival): 93 % of control; T/C (endpoint: median survival time, dose: 670.0 mg/kg/injection, schedule: Q01DX001 (ip), vehicle: carboxymethylcellulose (CMC), higher = longer survival): 96 % of control; T/C (endpoint: median tumor weight (est.), dose: 23.7 mg/kg/injection, schedule: Q01DX009 (ip), vehicle: carboxymethylcellulose (CMC), higher = larger tumour): 102 % of control; T/C (endpoint: median tumor weight (est.), dose: 24.0 mg/kg/injection, schedule: Q01DX009 (ip), vehicle: carboxymethylcellulose (CMC), higher = larger tumour): 74 % of control and 77 % of control; T/C (endpoint: median tumor weight (est.), dose: 37.5 mg/kg/injection, schedule: Q01DX009 (ip), vehicle: saline with Tween-80, higher = larger tumour): 90 % of control; T/C (endpoint: median tumor weight (est.), dose: 47.0 mg/kg/injection, schedule: Q01DX009 (ip), vehicle: carboxymethylcellulose (CMC), higher = larger tumour): 99 % of control; T/C (endpoint: median tumor weight (est.), dose: 47.5 mg/kg/injection, schedule: Q01DX009 (ip), vehicle: carboxymethylcellulose (CMC), higher = larger tumour): 50 % of control; T/C (endpoint: median tumor weight (est.), dose: 48.0 mg/kg/injection, schedule: Q01DX009 (ip), vehicle: carboxymethylcellulose (CMC), higher = larger tumour): 70 % of control; T/C (endpoint: median tumor weight (est.), dose: 75.0 mg/kg/injection, schedule: Q01DX009 (ip), vehicle: saline with Tween-80, higher = larger tumour): 73 % of control; T/C (endpoint: median tumor weight (est.), dose: 95.0 mg/kg/injection, schedule: Q01DX009 (ip), vehicle: carboxymethylcellulose (CMC), higher = larger tumour): 79 % of control and 82 % of control and 99 % of control; T/C (endpoint: median tumor weight (est.), dose: 150.0 mg/kg/injection, schedule: Q01DX009 (ip), vehicle: saline with Tween-80, higher = larger tumour): 70 % of control; T/C (endpoint: median tumor weight (est.), dose: 300.0 mg/kg/injection, schedule: Q01DX009 (ip), vehicle: saline with Tween-80, higher = larger tumour): 36 % of control

Q: Which results are given for `C[C@]12CC[C@H](OC3OC(CO)C(O)C(O)C3O)C[C@H]1CC[C@@H]1[C@@H]2CC[C@]2(C)[C@@H](C3=CCOC3=O)CC[C@]12O` (stereo partly drawn)?
A: T/C (endpoint: mean tumor weight, dose: 0.25 mg/kg/injection, schedule: Q01DX011 (ip), vehicle: carboxymethylcellulose (CMC), higher = larger tumour): 33 % of control; T/C (endpoint: mean tumor weight, dose: 0.25 mg/kg/injection, schedule: Q01DX011 (ip), vehicle: saline, higher = larger tumour): 41 % of control; T/C (endpoint: mean tumor weight, dose: 0.5 mg/kg/injection, schedule: Q01DX011 (ip), vehicle: carboxymethylcellulose (CMC), higher = larger tumour): 47 % of control; T/C (endpoint: mean tumor weight, dose: 0.5 mg/kg/injection, schedule: Q01DX011 (ip), vehicle: saline, higher = larger tumour): 16 % of control; T/C (endpoint: mean tumor weight, dose: 1.0 mg/kg/injection, schedule: Q01DX011 (ip), vehicle: carboxymethylcellulose (CMC), higher = larger tumour): 14 % of control
